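Compound exposure: 48 hours, 5 concentrations, 96-well plates. TGI: concentration producing complete growth inhibition.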
Columns and labels:
Experiment in all cases: NCI-60 cell line screen, 48 h
786-0 renal = tested on: 786-0 renal
A549 NSCLC = tested on: A549 NSCLC
ACHN renal = tested on: ACHN renal
BT-549 breast = tested on: BT-549 breast
CAKI-1 renal = tested on: CAKI-1 renal
CCRF-CEM leukemia = tested on: CCRF-CEM leukemia
COLO 205 colon = tested on: COLO 205 colon
DU-145 prostate = tested on: DU-145 prostate
EKVX NSCLC = tested on: EKVX NSCLC
HCC-2998 colon = tested on: HCC-2998 colon
HCT-116 colon = tested on: HCT-116 colon
HCT-15 colon = tested on: HCT-15 colon
HL-60(TB) leukemia = tested on: HL-60(TB) leukemia
HOP-62 NSCLC = tested on: HOP-62 NSCLC
HOP-92 NSCLC = tested on: HOP-92 NSCLC
HT29 colon = tested on: HT29 colon
IGROV1 ovarian = tested on: IGROV1 ovarian
K-562 leukemia = tested on: K-562 leukemia
KM12 colon = tested on: KM12 colon
M14 melanoma = tested on: M14 melanoma
MALME-3M melanoma = tested on: MALME-3M melanoma
MCF7 breast = tested on: MCF7 breast
MDA-N = tested on: MDA-N
MOLT-4 leukemia = tested on: MOLT-4 leukemia
NCI-H226 lung = tested on: NCI-H226 lung
NCI-H23 lung = tested on: NCI-H23 lung
NCI-H460 lung = tested on: NCI-H460 lung
NCI-H522 lung = tested on: NCI-H522 lung
NCI/ADR-RES ovarian = tested on: NCI/ADR-RES ovarian
OVCAR-3 ovarian = tested on: OVCAR-3 ovarian
OVCAR-4 ovarian = tested on: OVCAR-4 ovarian
OVCAR-5 ovarian = tested on: OVCAR-5 ovarian
OVCAR-8 ovarian = tested on: OVCAR-8 ovarian
PC-3 prostate = tested on: PC-3 prostate
RPMI-8226 leukemia = tested on: RPMI-8226 leukemia
RXF 393 renal = tested on: RXF 393 renal
SF-268 CNS = tested on: SF-268 CNS
SF-295 CNS = tested on: SF-295 CNS
SF-539 CNS = tested on: SF-539 CNS
SK-MEL-28 melanoma = tested on: SK-MEL-28 melanoma
SK-OV-3 ovarian = tested on: SK-OV-3 ovarian
SN12C renal = tested on: SN12C renal
SNB-19 CNS = tested on: SNB-19 CNS
SNB-75 CNS = tested on: SNB-75 CNS
SR leukemia = tested on: SR leukemia
SW-620 colon = tested on: SW-620 colon
TK-10 renal = tested on: TK-10 renal
U251 CNS = tested on: U251 CNS
UACC-257 melanoma = tested on: UACC-257 melanoma
UACC-62 melanoma = tested on: UACC-62 melanoma
UO-31 renal = tested on: UO-31 renal
A498 renal = tested on: A498 renal
HS 578T breast = tested on: HS 578T breast
LOX IMVI melanoma = tested on: LOX IMVI melanoma
MDA-MB-231 breast = tested on: MDA-MB-231 breast
MDA-MB-435 = tested on: MDA-MB-435
SK-MEL-2 melanoma = tested on: SK-MEL-2 melanoma
SK-MEL-5 melanoma = tested on: SK-MEL-5 melanoma

CCN(CC)CCn1c(C(C)(C)C)nc2ccccc21
TGI (786-0 renal): > 100 µM | TGI (A549 NSCLC): > 100 µM | TGI (ACHN renal): > 100 µM | TGI (BT-549 breast): > 100 µM | TGI (CAKI-1 renal): > 100 µM | TGI (CCRF-CEM leukemia): > 100 µM | TGI (COLO 205 colon): > 100 µM | TGI (DU-145 prostate): > 100 µM | TGI (EKVX NSCLC): > 100 µM | TGI (HCC-2998 colon): > 100 µM | TGI (HCT-116 colon): > 100 µM | TGI (HCT-15 colon): > 100 µM | TGI (HL-60(TB) leukemia): > 100 µM | TGI (HOP-62 NSCLC): > 100 µM | TGI (HOP-92 NSCLC): > 100 µM | TGI (HT29 colon): > 100 µM | TGI (IGROV1 ovarian): > 100 µM | TGI (K-562 leukemia): > 100 µM | TGI (KM12 colon): > 100 µM | TGI (M14 melanoma): > 100 µM | TGI (MALME-3M melanoma): > 100 µM | TGI (MCF7 breast): > 100 µM | TGI (MDA-N): > 100 µM | TGI (MOLT-4 leukemia): > 100 µM | TGI (NCI-H226 lung): > 100 µM | TGI (NCI-H23 lung): > 100 µM | TGI (NCI-H460 lung): > 100 µM | TGI (NCI-H522 lung): > 100 µM | TGI (NCI/ADR-RES ovarian): > 100 µM | TGI (OVCAR-3 ovarian): > 100 µM | TGI (OVCAR-4 ovarian): > 100 µM | TGI (OVCAR-5 ovarian): > 100 µM | TGI (OVCAR-8 ovarian): > 100 µM | TGI (PC-3 prostate): > 100 µM | TGI (RPMI-8226 leukemia): > 100 µM | TGI (RXF 393 renal): > 100 µM | TGI (SF-268 CNS): > 100 µM | TGI (SF-295 CNS): > 100 µM | TGI (SF-539 CNS): > 100 µM | TGI (SK-MEL-28 melanoma): > 100 µM | TGI (SK-OV-3 ovarian): > 100 µM | TGI (SN12C renal): > 100 µM | TGI (SNB-19 CNS): > 100 µM | TGI (SNB-75 CNS): > 100 µM | TGI (SR leukemia): > 100 µM | TGI (SW-620 colon): > 100 µM | TGI (TK-10 renal): > 100 µM | TGI (U251 CNS): > 100 µM | TGI (UACC-257 melanoma): > 100 µM | TGI (UACC-62 melanoma): > 100 µM | TGI (UO-31 renal): > 100 µM

Cc1ccc(-c2c(C#N)c(-c3ccc(Cl)cc3)c(C#N)c(=O)n2NS(=O)(=O)c2ccccc2)cc1
TGI (786-0 renal): > 100 µM | TGI (A498 renal): > 100 µM | TGI (A549 NSCLC): > 100 µM | TGI (ACHN renal): > 100 µM | TGI (BT-549 breast): > 100 µM | TGI (CAKI-1 renal): > 100 µM | TGI (CCRF-CEM leukemia): > 100 µM | TGI (COLO 205 colon): > 100 µM | TGI (EKVX NSCLC): > 100 µM | TGI (HCC-2998 colon): > 100 µM | TGI (HCT-116 colon): > 100 µM | TGI (HCT-15 colon): > 100 µM | TGI (HL-60(TB) leukemia): > 100 µM | TGI (HOP-62 NSCLC): > 100 µM | TGI (HOP-92 NSCLC): > 100 µM | TGI (HS 578T breast): > 100 µM | TGI (HT29 colon): > 100 µM | TGI (IGROV1 ovarian): > 100 µM | TGI (K-562 leukemia): > 100 µM | TGI (KM12 colon): > 100 µM | TGI (LOX IMVI melanoma): > 100 µM | TGI (M14 melanoma): > 100 µM | TGI (MALME-3M melanoma): > 100 µM | TGI (MCF7 breast): > 100 µM | TGI (MDA-MB-231 breast): > 100 µM | TGI (MDA-MB-435): > 100 µM | TGI (MDA-N): > 100 µM | TGI (MOLT-4 leukemia): > 100 µM | TGI (NCI-H226 lung): > 100 µM | TGI (NCI-H460 lung): > 100 µM | TGI (NCI-H522 lung): > 100 µM | TGI (NCI/ADR-RES ovarian): > 100 µM | TGI (OVCAR-4 ovarian): > 100 µM | TGI (OVCAR-5 ovarian): > 100 µM | TGI (OVCAR-8 ovarian): > 100 µM | TGI (PC-3 prostate): > 100 µM | TGI (RPMI-8226 leukemia): 51.6 µM | TGI (RXF 393 renal): > 100 µM | TGI (SF-268 CNS): > 100 µM | TGI (SF-295 CNS): > 100 µM | TGI (SF-539 CNS): > 100 µM | TGI (SK-MEL-2 melanoma): > 100 µM | TGI (SK-MEL-28 melanoma): > 100 µM | TGI (SK-MEL-5 melanoma): > 100 µM | TGI (SK-OV-3 ovarian): > 100 µM | TGI (SN12C renal): > 100 µM | TGI (SNB-19 CNS): > 100 µM | TGI (SNB-75 CNS): > 100 µM | TGI (SW-620 colon): > 100 µM | TGI (TK-10 renal): > 100 µM | TGI (U251 CNS): > 100 µM | TGI (UACC-257 melanoma): > 100 µM | TGI (UACC-62 melanoma): > 100 µM

From PubChem BioAssay (NCI)
